How the values were obtained:
[1] = target: T1, Avi-KRAS G12D (1-169) GppNHp/RAF1 RBD-3xFLAG (52-151) (Homo sapiens, UniProt P01116, G12D); experiment: Raf1-KRAS G12D-GppNHP disruption HTRF assay (Biological Example 1); type: binding; conditions: KRAS G12D-GppNHp/RAF1 RBD HTRF
T1 construct: Avi-KRAS G12D (1-169)
Method in brief: (§1)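 First, protein mix in Tris pH 7.5 buffer with NaCl, MgCl2, BSA, Tween and 10% DMSO is incubated 1 h at room temperature. Next, reagent mix is added and incubated a further 1 h at room temperature. Finally, HTRF is read and activity normalized to DMSO.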

[2] = target: T2, Avi-KRAS G12R (1-169) GppNHp/RAF1 RBD-3xFLAG (52-151) (Homo sapiens, UniProt P01116, G12R); experiment: Raf1-KRAS G12R-GppNHP disruption HTRF assay (Biological Example 1); type: binding; conditions: KRAS G12R-GppNHp/RAF1 RBD HTRF
T2 construct: Avi-KRAS G12R (1-169)
Method in brief: as §1

[3] = target: T3, Avi-KRAS G12V (1-169) GppNHp/RAF1 RBD-3xFLAG (52-151) (Homo sapiens, UniProt P01116, G12V); experiment: Raf1-KRAS G12V-GppNHP disruption HTRF assay (Biological Example 1); type: binding; conditions: KRAS G12V-GppNHp/RAF1 RBD HTRF
T3 construct: Avi-KRAS G12V (1-169)
Method in brief: as §1

[4] = target: T4, Avi-KRAS WT (1-169) GppNHp/RAF1 RBD-3xFLAG (52-151) (Homo sapiens, UniProt P01116); experiment: Raf1-KRAS WT-GppNHP disruption HTRF assay (Biological Example 1); type: binding; conditions: KRAS WT-GppNHp/RAF1 RBD HTRF
T4 construct: Avi-KRAS WT (1-169)
Method in brief: as §1

[5] = tested on: GP2d cells (KRAS G12D); experiment: Cell-based pERK HTRF assay in GP2d cell (Biological Example 2); conditions: GP2d, GP2d (KRAS G12D) cells, pERK HTRF
Method in brief: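 HTRF read-out of pERK (excitation 320 nm, emission 615 nm) after lysates sat 4–24 h at room temperature with Eu cryptate and d2 antibodies.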

[6] = tested on: SW620 cells (KRAS G12V); experiment: Cell-based pERK HTRF assay in SW620 cell (Biological Example 4); conditions: Homo sapiens, SW-620, SW620 (KRAS G12V) cells, pERK HTRF
Method in brief: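 SW620 cells were treated for 4 h with compound in a 9-point half-log series from 1 μM top (0.25% DMSO), then lysed. Phospho-ERK was detected by HTRF with d2 and Eu cryptate antibodies after 4–24 h at room temperature, read at 615 nm emission.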

T1 sequence (P01116 1-169 isoform P01116-2 G12D): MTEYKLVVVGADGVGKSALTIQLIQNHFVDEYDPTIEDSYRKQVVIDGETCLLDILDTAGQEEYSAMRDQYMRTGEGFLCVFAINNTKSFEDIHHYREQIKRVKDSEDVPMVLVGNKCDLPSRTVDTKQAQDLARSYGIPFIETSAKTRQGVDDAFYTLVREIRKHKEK
T3 sequence (P01116 1-169 isoform P01116-2 G12V): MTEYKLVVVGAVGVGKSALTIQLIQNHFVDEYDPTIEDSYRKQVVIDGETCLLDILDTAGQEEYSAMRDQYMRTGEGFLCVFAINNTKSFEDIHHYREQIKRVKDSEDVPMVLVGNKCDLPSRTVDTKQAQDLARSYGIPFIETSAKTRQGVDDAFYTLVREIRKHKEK
T2 sequence (P01116 1-169 isoform P01116-2 G12R): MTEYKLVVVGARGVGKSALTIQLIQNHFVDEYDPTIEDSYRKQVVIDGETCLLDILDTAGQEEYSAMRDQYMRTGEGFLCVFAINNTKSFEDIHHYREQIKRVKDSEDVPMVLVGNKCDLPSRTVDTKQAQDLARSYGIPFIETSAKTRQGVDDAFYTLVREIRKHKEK
T4 sequence (P01116 1-169 isoform P01116-2): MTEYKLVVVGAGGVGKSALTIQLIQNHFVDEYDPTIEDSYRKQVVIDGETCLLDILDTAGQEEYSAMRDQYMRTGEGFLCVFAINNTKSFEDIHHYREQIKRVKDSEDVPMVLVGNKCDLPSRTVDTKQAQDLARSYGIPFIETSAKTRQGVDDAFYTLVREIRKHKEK

SMILES | IC50 [1] | IC50 [2] | IC50 [3] | IC50 [4] | IC50 [5] | IC50 [6]
CN1CCN(c2nc(OC[C@@]34CCCN3C[C@H](F)C4)nc3c(F)c(-c4ccc(F)c5sc(N)c(C#N)c45)c(C(F)(F)F)cc23)CCS1(=O)=O [Compound 311] | > 10 µM | > 10 µM | > 10 µM | > 10 µM | > 1 µM | > 1 µM
C[C@@H]1[C@H](N(C)c2nc(OC[C@@]34CCCN3C[C@H](F)C4)nc3c(F)c(-c4ccc(F)c5sc(N)c(C#N)c45)c(C(F)(F)F)cc23)CCN1C(=O)C(C)(C)C [Compound 312] | 0.1 to 1 µM | 0.1 to 1 µM | 0.1 to 1 µM | 0.1 to 1 µM | < 0.1 µM | < 0.1 µM
C[C@@H]1[C@H](N(C)c2nc(OC[C@@]34CCCN3C[C@H](F)C4)nc3c(F)c(-c4ccc(F)c5sc(N)c(C#N)c45)c(C(F)(F)F)cc23)CCN1C(=O)C1(C)CC1 [Compound 313] | 0.1 to 1 µM | 0.1 to 1 µM | 0.1 to 1 µM | 0.1 to 1 µM | < 0.1 µM | < 0.1 µM
C[C@@H]1CC[C@@H](O)CN1c1nc(OC[C@@]23CCCN2C[C@H](F)C3)nc2c(F)c(-c3ccc(F)c4sc(N)c(C#N)c34)c(C(F)(F)F)cc12 [Compound 314] | 0.1 to 1 µM | 0.1 to 1 µM | 0.1 to 1 µM | 0.1 to 1 µM | < 0.1 µM | < 0.1 µM
CN(c1nc(OC[C@@]23CCCN2C[C@H](F)C3)nc2c(F)c(-c3ccc(F)c4sc(N)c(C#N)c34)c(C(F)(F)F)cc12)[C@@H]1CC[C@H](O)C1 [Compound 315] | 0.1 to 1 µM | 1 to 10 µM | 1 to 10 µM | 0.1 to 1 µM | < 0.1 µM | < 0.1 µM
N#Cc1c(N)sc2c(F)ccc(-c3c(C(F)(F)F)cc4c(N5CCC[C@@H](CO)C5)nc(OC[C@@]56CCCN5C[C@H](F)C6)nc4c3F)c12 [Compound 316] | 0.1 to 1 µM | 0.1 to 1 µM | 1 to 10 µM | 0.1 to 1 µM | < 0.1 µM | < 0.1 µM
C[C@H]1CC[C@@H](O)CN1c1nc(OC[C@@]23CCCN2C[C@H](F)C3)nc2c(F)c(-c3ccc(F)c4sc(N)c(C#N)c34)c(C(F)(F)F)cc12 [Compound 317] | 0.1 to 1 µM | 0.1 to 1 µM | 1 to 10 µM | 0.1 to 1 µM | < 0.1 µM | < 0.1 µM
Cc1nc(OC[C@@]23CCCN2C[C@H](F)C3)nc2c(F)c(-c3ccc(F)c4sc(N)c(C#N)c34)c(C(F)(F)F)cc12 [Compound 318, 2-amino-7-fluoro-4-[8-fluoro-2-[[(2R,8S)-2-fluoro-1,2,3,5,6,7-hexahydropyrrolizin-8-yl]methoxy]-4-methyl-6-(trifluoromethyl)quinazolin-7-yl]benzothiophene-3-carbonitrile] | 0.1 to 1 µM | 0.1 to 1 µM | 1 to 10 µM | 1 to 10 µM | < 0.1 µM | 0.1 to 1 µM
N#Cc1c(N)sc2c(F)ccc(-c3c(C(F)(F)F)cc4c(N5C[C@@H]6C[C@H]5CS6(=O)=O)nc(OC[C@@]56CCCN5C[C@H](F)C6)nc4c3F)c12 [Compound 319] | 0.1 to 1 µM | 1 to 10 µM | 1 to 10 µM | 1 to 10 µM | 0.1 to 1 µM | 0.1 to 1 µM
N#Cc1c(N)sc2c(F)ccc(-c3c(C(F)(F)F)cc4c(N5C6CCC5CS(=O)(=O)C6)nc(OC[C@@]56CCCN5C[C@H](F)C6)nc4c3F)c12 [Compound 320] | 0.1 to 1 µM | 1 to 10 µM | 1 to 10 µM | 0.1 to 1 µM | < 0.1 µM | < 0.1 µM
CC(=O)N1C[C@H](N(C)c2nc(OC[C@@]34CCCN3C[C@H](F)C4)nc3c(F)c(-c4ccc(F)c5sc(N)c(C#N)c45)c(C(F)(F)F)cc23)C[C@H]1C [Compound 321] | 0.1 to 1 µM | 0.1 to 1 µM | 0.1 to 1 µM | 0.1 to 1 µM | < 0.1 µM | < 0.1 µM
N#Cc1c(N)sc2c(F)ccc(-c3c(C(F)(F)F)cc4c(N5C[C@H]6C[C@@H]5CS6(=O)=O)nc(OC[C@@]56CCCN5C[C@H](F)C6)nc4c3F)c12 [Compound 322] | 0.1 to 1 µM | 0.1 to 1 µM | 1 to 10 µM | 0.1 to 1 µM | < 0.1 µM | 0.1 to 1 µM
CCC(=O)N1CC[C@@H](N(CC)c2nc(OC[C@@]34CCCN3C[C@H](F)C4)nc3c(F)c(-c4ccc(F)c5sc(N)c(C#N)c45)c(Cl)cc23)[C@H]1C [Compound 324] | 0.1 to 1 µM | 0.1 to 1 µM | 0.1 to 1 µM | 0.1 to 1 µM | < 0.1 µM | < 0.1 µM
C[C@@H]1[C@H](N(C)c2nc(OC[C@@]34CCCN3C[C@H](F)C4)nc3c(F)c(-c4ccc(F)c5sc(N)c(C#N)c45)c(C(F)(F)F)cc23)CCN1C(=O)C1(C#N)CC1 [Compound 325] | 0.1 to 1 µM | 0.1 to 1 µM | 0.1 to 1 µM | 0.1 to 1 µM | < 0.1 µM | < 0.1 µM
CC(=O)N1CC[C@@H](N(C)c2nc(OC[C@@]34CCCN3C[C@H](F)C4)nc3c(F)c(-c4ccc(F)c5oc(N)c(C#N)c45)c(C(F)(F)F)cc23)[C@H]1C [Compound 326] | 0.1 to 1 µM | 0.1 to 1 µM | 1 to 10 µM | 0.1 to 1 µM | < 0.1 µM | 0.1 to 1 µM
CN(c1nc(OC[C@@]23CCCN2C[C@H](F)C3)nc2c(F)c(-c3ccc(F)c4sc(N)c(C#N)c34)c(C(F)(F)F)cc12)C1CCS(=O)(=O)CC1 [Compound 330] | 0.1 to 1 µM | 1 to 10 µM | 1 to 10 µM | 0.1 to 1 µM | < 0.1 µM | 0.1 to 1 µM
CN1C[C@@H](N(C)c2nc(OC[C@@]34CCCN3C[C@H](F)C4)nc3c(F)c(-c4ccc(F)c5sc(N)c(C#N)c45)c(C(F)(F)F)cc23)CC1=O [Compound 338] | 0.1 to 1 µM | 0.1 to 1 µM | 0.1 to 1 µM | 0.1 to 1 µM | < 0.1 µM | < 0.1 µM
CN(c1nc(OC[C@@]23CCCN2C[C@H](F)C3)nc2c(F)c(-c3ccc(F)c4sc(N)c(C#N)c34)c(C(F)(F)F)cc12)[C@@H]1CNC(=O)C1 [Compound 340] | 0.1 to 1 µM | 0.1 to 1 µM | 0.1 to 1 µM | 0.1 to 1 µM | < 0.1 µM | 0.1 to 1 µM
CN(c1nc(OC[C@@]23CCCN2C[C@H](F)C3)nc2c(F)c(-c3ccc(F)c4sc(N)c(C#N)c34)c(C(F)(F)F)cc12)C1CCCS(=O)(=O)C1 (stereo partly drawn) [Compound 341] | 0.1 to 1 µM | 0.1 to 1 µM | 1 to 10 µM | 0.1 to 1 µM | < 0.1 µM | 0.1 to 1 µM
CC(=O)N1CC[C@@](C)(N(C)c2nc(OC[C@@]34CCCN3C[C@H](F)C4)nc3c(F)c(-c4ccc(F)c5sc(N)c(C#N)c45)c(C(F)(F)F)cc23)[C@H]1C [Compound 342] | 1 to 10 µM | 1 to 10 µM | 1 to 10 µM | 0.1 to 1 µM | < 0.1 µM | 0.1 to 1 µM
CCC(=O)N1CC[C@@](C)(N(C)c2nc(OC[C@@]34CCCN3C[C@H](F)C4)nc3c(F)c(-c4ccc(F)c5sc(N)c(C#N)c45)c(C(F)(F)F)cc23)[C@H]1C [Compound 343] | 1 to 10 µM | > 10 µM | 1 to 10 µM | 1 to 10 µM | 0.1 to 1 µM | 0.1 to 1 µM
